# Values of other authors, collected in patent US20020155976A1, “Cleaning compositions” (Unilever Home & Personal Care USA, Division of Conopco, Inc., priority 2000, published 2002).
# Like-named read-outs stand apart in the source and are kept apart here.
# [1] = at 20° C., other common materials, by contrast
Compound,Water Solubility [1] [g/100 g],"Water Solubility (grams of solid to form a saturated solution in 100 grams of water at 20° C., highly water-soluble materials) [g/100 g]"
O=BO[O-].[Na+] [Sodium perborate anhydrous],3.7,–
O=P(O)(O)OP(=O)(O)OP(=O)(O)O [Sodium tripolyphosphate anhydrous],15,–
NC(N)=O [Urea],–,>100
